1 molecule from patent US9539298B2, “Lissencephaly therapeutic agent” (OSAKA CITY UNIVERSITY, priority 2010, dated 2017) can be followed below.

Series [1] deals with nerve cells from cerebellums of FVB mice. Put plainly: Analysis of toxicity of calpain inhibitors on cultured cerebellar nerve cells. In kind it is cell-based, mouse. As for the experimental part:
The cerebellums were removed from 4- to 5-day-old FVB mice (15 mice). In a Ca^2+-free Hank's Balanced Salt Solution (CF-HBSS; Ca^2+, Mg^2+-free Hank's Balanced Salt Solution (CMF-HBBS, Sigma) containing 5 mM magnesium chloride (MgCl2, Wako) and 4 mg/mL glucose (Wako)), the meninges were removed and cut into pieces. After the cerebellum fragments were washed with CF-HBSS, the fragments were allowed to stand for 20 minutes at 37° C. in CF-HBSS containing 0.025% trypsin (Invitrogen) and 6.25 μg/mL deoxyribonuclease (DNase, Sigma), and then centrifuged. The resulting tissues were washed with 10% HS/BME (DNase Medium; obtained by adding 5 mM MgCl2 and 25 μg/mL DNase to Basal Medium Eagle (BME, Invitrogen) containing 10% Horse Serum (HS, Invitrogen)) and centrifuged. DNase medium was added to the cells, and the cells were transferred to a 24-well plate (Nunc). The cells were kept still for 30 minutes at 37′C under an atmospheric environment of 5% CO2, thereby suspending the cells. The cell suspension was isolated, and then washed with 10% HS/BME. The suspension was transferred again to a 24-well plate to be cultured for 16 hours at 37° C. under an atmospheric environment of 5% CO2. The cells were collected to BME containing 1% Bovine Serum Albumin (BSA, Sigma) and 0.5% N2 supplement (Invitrogen), and the cell suspension was seeded on a 35 mm glass base dish (Iwaki) coated beforehand with poly-L-lysine (Sigma) and laminin (Sigma) in an amount of […]. The cells were cultured for 8 hours at 37° C. under an atmospheric environment of 5% CO2. The cultured nerve cells were used as test nerve cells.
A culture solution (10% HS/BME) containing SNJ-1945, E64d, or ALLN was prepared in the following manner. SNJ-1945 dissolved in dimethyl sulfoxide (Sigma, D-5879) was mixed with a culture solution so that the final concentration became 200 μM, and was kept still for an hour at 37° C., thereby completely dissolving SNJ-1945 in the culture medium. ALLN and E64d were also dissolved in culture media in the same manner, except that ALLN and E64d were added to the culture media to final concentrations of 50 μM and 100 μM, respectively. The culture media in which the components were dissolved were added to the test nerve cells prepared above in an amount of 2 ml/well, and the cells were cultured for 16 hours. As a control, the same culture was conducted using a culture medium containing the same amount of dimethyl sulfoxide (Sigma, D-5879). After culture, the cells were observed using an inverted microscope (TCS FP5S, Leica). A 20× objective lens was used. Images were taken using dedicated software (LAS AF, Leica) under the condition of 512×512 pixels.

The test system of series [2] is LIS1 heterozygous newborn mice. Put plainly: LIS1 protein in newborn mouse brains after SNJ-1945 oral administration. In kind it is in vivo. As for the experimental part: A neo(−)129S-Pafah1b1^tm2Awb/J homozygous male mouse lacking neo gene was mated with five homozygous EII-Cre transgenic female mice (FVB/N-Tg (EIIa-cre) C5379Lmgd/J, The Jackson Laboratory) by raising them in the same mouse cage. In total, six sets of mouse cages were prepared for the mating experiment. A newborn was defined at the time of delivery confirmation, which was conducted every morning. SNJ-1945 was dissolved in dimethyl sulfoxide (DMSO) at a concentration of 100 mg/ml, and orally administered using pipettes to the newborn mice in an amount of 200 μg/per gram of body weight.
To determine the effect of SNJ-1945 administration, LIS1 proteins of normal newborn mice and LIS1 heterozygous newborn mice (administered with SNJ-1945) were measured. In the SNJ-1945 administration group, the brain tissues were taken at 0 hour (immediately after the administration), 1 hour, 2 hours, 4 hours, 8 hours, 12 hours, 16 hours, 24 hours, 48 hours, and 72 hours after the administration to measure LIS1 protein, so as to determine the effect of SNJ-1945 over time. Six mice for each group were used for the measurement of LIS1 protein (n=6).
The newborn mice were killed by cutting off their heads, and the brain tissues thereof were immediately isolated. For the measurement of LIS1 protein amount, the weight of the brains was immediately measured as soon as the brains were removed.

With `COCCOCCOC(=O)N[C@@H](CC(C)C)C(=O)N[C@@H](Cc1ccccc1)C(=O)C(=O)NC1CC1` [compound 17, ((1S)-1-((((1S)-1-Benzyl-2,3-dioxo-3-(cyclopropylamino)propyl)amino)carbonyl)-3-methylbutyl)carbamic acid 5-methoxy-3-oxapentyl ester], in series [1] (200 μM, 16 hours, FIG. 24), the “neurite elongation and cell migration (cytotoxicity)” value was “normal neurite elongation and cell migration were also observed, and no significant difference from the control was observed”. Further, in series [1] (compared with other calpain inhibitors), the cell toxicity entry was “did not show any cell toxicity even in a high concentration”. Moreover, the “LIS1 protein amount in newborn brain” value in series [2] (200 μg per gram of body weight, oral, FIG. 7) is “recovered to substantially the normal level”. In series [2] (200 μg/g oral), the “duration of the effect on LIS1 protein after a single dose” value is reported as “continued for at least three days”.
